From patent US9693556B2, “Herbicidal pyridazinone derivatives” (SYNGENTA LIMITED, priority 2011, dated 2017)

Key:
Type in all cases: in vivo
[1] = system: Alopecurus myosuroides (ALOMY); experiment: Pre-emergence herbicidal glasshouse test on Alopecurus myosuroides; details: pre-emergence; 1000 g/h; evaluated after 13 days
Summary of the method: (§1)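 Plants sprayed 1 day (pre-emergence) or 8 days (post-emergence) after sowing with compound at 1000 g/h in acetone/water 50:50 with 0.5% Tween 20; glasshouse 24/16° C, 14 h light, 65% humidity. Damage assessed after 13 days, scored 1–5 (5 = 80-100%, 1 = 0-19%).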

[2] = system: Setaria faberi (SETFA); experiment: Pre-emergence herbicidal glasshouse test on Setaria faberi; details: pre-emergence; 1000 g/h; evaluated after 13 days
Summary of the method: as §1

[3] = system: Echinochloa crus-galli (ECHCG); experiment: Pre-emergence herbicidal glasshouse test on Echinochloa crus-galli; details: pre-emergence; 1000 g/h; evaluated after 13 days
Summary of the method: as §1

[4] = system: Solanum nigrum (SOLNI); experiment: Pre-emergence herbicidal glasshouse test on Solanum nigrum; details: pre-emergence; 1000 g/h; evaluated after 13 days
Summary of the method: as §1

[5] = system: Amaranthus retoflexus (AMARE); experiment: Pre-emergence herbicidal glasshouse test on Amaranthus retoflexus; details: pre-emergence; 1000 g/h; evaluated after 13 days
Summary of the method: as §1

[6] = system: Ipomoea hederacea (IPOHE); experiment: Pre-emergence herbicidal glasshouse test on Ipomoea hederacea; details: pre-emergence; 1000 g/h; evaluated after 13 days
Summary of the method: as §1

[7] = system: Alopecurus myosuroides (ALOMY); experiment: Post-emergence herbicidal glasshouse test on Alopecurus myosuroides; details: post-emergence; 1000 g/h; evaluated after 13 days
Summary of the method: as §1

[8] = system: Setaria faberi (SETFA); experiment: Post-emergence herbicidal glasshouse test on Setaria faberi; details: post-emergence; 1000 g/h; evaluated after 13 days
Summary of the method: as §1

[9] = system: Echinochloa crus-galli (ECHCG); experiment: Post-emergence herbicidal glasshouse test on Echinochloa crus-galli; details: post-emergence; 1000 g/h; evaluated after 13 days
Summary of the method: as §1

[10] = system: Solanum nigrum (SOLNI); experiment: Post-emergence herbicidal glasshouse test on Solanum nigrum; details: post-emergence; 1000 g/h; evaluated after 13 days
Summary of the method: as §1

[11] = system: Amaranthus retoflexus (AMARE); experiment: Post-emergence herbicidal glasshouse test on Amaranthus retoflexus; details: post-emergence; 1000 g/h; evaluated after 13 days
Summary of the method: as §1

[12] = system: Ipomoea hederacea (IPOHE); experiment: Post-emergence herbicidal glasshouse test on Ipomoea hederacea; details: post-emergence; 1000 g/h; evaluated after 13 days
Summary of the method: as §1

| SMILES | PRE Application ALOMY herbicidal damage (five point scale) [1] | PRE Application SETFA herbicidal damage (five point scale) [2] | PRE Application ECHCG herbicidal damage (five point scale) [3] | PRE Application SOLNI herbicidal damage (five point scale) [4] | PRE Application AMARE herbicidal damage (five point scale) [5] | PRE Application IPOHE herbicidal damage (five point scale) [6] | POST Application ALOMY herbicidal damage (five point scale) [7] | POST Application SETFA herbicidal damage (five point scale) [8] | POST Application ECHCG herbicidal damage (five point scale) [9] | POST Application SOLNI herbicidal damage (five point scale) [10] | POST Application AMARE herbicidal damage (five point scale) [11] | POST Application IPOHE herbicidal damage (five point scale) [12] |
| --- | --- | --- | --- | --- | --- | --- | --- | --- | --- | --- | --- | --- |
| Cc1cc(-c2cnn(C)c(=O)c2O)c(=O)n(-c2ccccc2)c1 [Compound 6.001] | 1 (1=0-19% damage) | 1 (1=0-19% damage) | 1 (1=0-19% damage) | 1 (1=0-19% damage) | 1 (1=0-19% damage) | 1 (1=0-19% damage) | 3 (3=40-59% damage) | 3 (3=40-59% damage) | 5 (5=80-100% damage) | 5 (5=80-100% damage) | 5 (5=80-100% damage) | 1 (1=0-19% damage) |
| Cn1ncc(-c2cccn(Cc3ccccc3)c2=O)c(O)c1=O [Compound 9.008] | 1 (1=0-19% damage) | 1 (1=0-19% damage) | 4 (4=60-79% damage) | 2 (2=20-39% damage) | 2 (2=20-39% damage) | 1 (1=0-19% damage) | 1 (1=0-19% damage) | 1 (1=0-19% damage) | 1 (1=0-19% damage) | 3 (3=40-59% damage) | 3 (3=40-59% damage) | 1 (1=0-19% damage) |
| Cn1ncc(-c2ccc(C(F)(F)F)cc2[S+](C)[O-])c(O)c1=O (stereo not drawn) [Compound 1.029] | 5 (5=80-100% damage) | 5 (5=80-100% damage) | 5 (5=80-100% damage) | 5 (5=80-100% damage) | 5 (5=80-100% damage) | 5 (5=80-100% damage) | 5 (5=80-100% damage) | 5 (5=80-100% damage) | 5 (5=80-100% damage) | 5 (5=80-100% damage) | 5 (5=80-100% damage) | 5 (5=80-100% damage) |
| Cc1c(-c2cnn(C3CC3)c(=O)c2O)ccc(S(C)(=O)=O)c1C1=NOCC1 [Compound 1.008, 2-cyclopropyl-5-[3-(4,5-dihydroisoxazol-3-yl)-2-methyl-4-methylsulfonyl-phenyl]-4-hydroxy-pyridazin-3-one] | 4 (4=60-79% damage) | 4 (4=60-79% damage) | 5 (5=80-100% damage) | 5 (5=80-100% damage) | 4 (4=60-79% damage) | 3 (3=40-59% damage) | 5 (5=80-100% damage) | 5 (5=80-100% damage) | 5 (5=80-100% damage) | 5 (5=80-100% damage) | 5 (5=80-100% damage) | 5 (5=80-100% damage) |
| Cn1ncc(-c2ccc(C(F)(F)F)nc2C#N)c(O)c1=O [Compound 4.015] | 1 (1=0-19% damage) | 1 (1=0-19% damage) | 1 (1=0-19% damage) | 1 (1=0-19% damage) | 1 (1=0-19% damage) | 1 (1=0-19% damage) | 1 (1=0-19% damage) | 1 (1=0-19% damage) | 1 (1=0-19% damage) | 1 (1=0-19% damage) | 1 (1=0-19% damage) | 1 (1=0-19% damage) |
| Cn1ncc(-n2ccc(O)c(C#N)c2=O)c(O)c1=O [Compound 1.066] | 3 (3=40-59% damage) | 1 (1=0-19% damage) | 2 (2=20-39% damage) | 4 (4=60-79% damage) | 4 (4=60-79% damage) | 5 (5=80-100% damage) | 2 (2=20-39% damage) | 1 (1=0-19% damage) | 1 (1=0-19% damage) | 3 (3=40-59% damage) | 1 (1=0-19% damage) | 2 (2=20-39% damage) |
| Cn1ncc(-n2ccc(C(F)(F)F)c(-c3cccc(C(F)(F)F)c3)c2=O)c(O)c1=O [Compound 7.018] | 5 (5=80-100% damage) | 5 (5=80-100% damage) | 5 (5=80-100% damage) | 5 (5=80-100% damage) | 5 (5=80-100% damage) | 2 (2=20-39% damage) | 5 (5=80-100% damage) | 5 (5=80-100% damage) | 5 (5=80-100% damage) | 5 (5=80-100% damage) | 5 (5=80-100% damage) | 3 (3=40-59% damage) |
| Cc1ccc(-c2c(C(F)(F)F)ccn(-c3cnn(C)c(=O)c3O)c2=O)cc1[N+](=O)[O-] [Compound 7.027] | 3 (3=40-59% damage) | 3 (3=40-59% damage) | 5 (5=80-100% damage) | 5 (5=80-100% damage) | 5 (5=80-100% damage) | 1 (1=0-19% damage) | 3 (3=40-59% damage) | 5 (5=80-100% damage) | 5 (5=80-100% damage) | 5 (5=80-100% damage) | 5 (5=80-100% damage) | 2 (2=20-39% damage) |
| CCS(=O)(=O)c1ccccc1-c1cnn(COC)c(=O)c1O [Compound 2.004] | 5 (5=80-100% damage) | 5 (5=80-100% damage) | 5 (5=80-100% damage) | 5 (5=80-100% damage) | 5 (5=80-100% damage) | 4 (4=60-79% damage) | 3 (3=40-59% damage) | 5 (5=80-100% damage) | 5 (5=80-100% damage) | 5 (5=80-100% damage) | 5 (5=80-100% damage) | 5 (5=80-100% damage) |
